Active and inactive are the calls of the source.
How the values were obtained:
[1] = biological target: UDP-galactopyranose mutase (Mycobacterium tuberculosis, UniProt P9WIQ1); test: Inhibitors of Mycobacterium tuberculosis UDP-galactopyranose mutase (UGM) enzyme Measured in Biochemical System Using Plate Reader - 2105-02_Inhibitor_Dose_CherryPick_Activity. [Related pubchem assays (depositor defined):AID504439]
[2] = tested on: HeLa; test: HeLa cell cytotoxicity, dose response, cytotoxicity control, 24 h, cherry-picked samples (AID 504726); type: functional, cell-based; conditions: Homo sapiens;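 further: potency for cytotoxicity as loss of luminescence signal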
[3] = biological target: T1, Endoribonuclease toxin MazF (Escherichia coli K-12, UniProt P0AE70); test: MazF toxin RNase activators, dose response, biochemical, fluorescence, single-stranded RNA substrate, uHTS hits (AID 588481); type: functional
T1 sequence (P0AE70 whole entry): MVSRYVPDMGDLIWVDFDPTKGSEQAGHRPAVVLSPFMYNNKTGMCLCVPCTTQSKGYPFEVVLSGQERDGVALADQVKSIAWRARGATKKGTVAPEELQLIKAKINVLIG

[4] = biological target: T1, Endoribonuclease toxin MazF; test: fluorescent RNA oligo signal without MazF, dose response, counter-screen for MazEF activator project, biochemical, fluorescence, single-stranded RNase substrate (AID 588502); type: functional
[5] = biological target: T2, ORF 73 (Human herpesvirus 8, UniProt O40947); test: inhibitors of C-LANA binding to LBS DNA, dose response, biochemical, fluorescence polarization, cherry-picked samples (AID 504725); design: species or system Human gammaherpesvirus 8;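 further: fluorescence polarization of a labeled DNA duplex reporting LANA DNA binding; potency is for inhibitors that block LANA binding to the DNA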
T2 sequence (O40947 whole entry): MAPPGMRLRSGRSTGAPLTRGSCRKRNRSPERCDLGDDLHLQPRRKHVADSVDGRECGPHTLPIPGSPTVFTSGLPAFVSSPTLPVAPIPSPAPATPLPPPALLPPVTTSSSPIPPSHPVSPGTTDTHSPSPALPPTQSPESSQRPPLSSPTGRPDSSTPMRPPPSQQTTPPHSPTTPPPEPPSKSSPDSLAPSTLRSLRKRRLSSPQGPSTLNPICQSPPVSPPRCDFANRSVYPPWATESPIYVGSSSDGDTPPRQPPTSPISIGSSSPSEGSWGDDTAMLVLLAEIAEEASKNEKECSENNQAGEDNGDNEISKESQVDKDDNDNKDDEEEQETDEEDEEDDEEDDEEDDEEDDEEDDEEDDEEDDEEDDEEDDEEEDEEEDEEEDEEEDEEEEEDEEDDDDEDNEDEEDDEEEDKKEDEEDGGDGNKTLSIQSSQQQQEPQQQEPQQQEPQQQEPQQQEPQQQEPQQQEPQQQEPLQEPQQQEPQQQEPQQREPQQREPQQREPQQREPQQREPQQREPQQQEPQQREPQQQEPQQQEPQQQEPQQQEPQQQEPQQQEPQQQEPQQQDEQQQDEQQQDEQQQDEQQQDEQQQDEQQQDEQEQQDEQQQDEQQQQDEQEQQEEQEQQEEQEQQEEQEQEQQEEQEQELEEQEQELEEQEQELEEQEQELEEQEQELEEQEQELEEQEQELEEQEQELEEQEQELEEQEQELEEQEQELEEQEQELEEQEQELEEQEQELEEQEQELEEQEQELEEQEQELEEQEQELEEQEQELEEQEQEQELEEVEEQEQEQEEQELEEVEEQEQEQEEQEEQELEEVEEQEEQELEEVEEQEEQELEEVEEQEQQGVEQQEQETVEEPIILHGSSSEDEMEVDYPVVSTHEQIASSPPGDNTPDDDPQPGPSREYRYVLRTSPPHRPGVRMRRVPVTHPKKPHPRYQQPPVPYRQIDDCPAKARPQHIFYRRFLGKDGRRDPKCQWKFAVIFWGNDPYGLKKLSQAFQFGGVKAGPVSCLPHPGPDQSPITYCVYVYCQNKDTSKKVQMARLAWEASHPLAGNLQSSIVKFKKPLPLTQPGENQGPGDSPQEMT

[6] = biological target: Keap1/Nrf2 (Homo sapiens, UniProt Q14145); test: Keap1-Nrf2 protein-protein interaction inhibitors, dose response, biochemical, fluorescence polarization, cherry-picked samples (AID 588683)
Chain of Keap1/Nrf2 (Q16236 whole entry): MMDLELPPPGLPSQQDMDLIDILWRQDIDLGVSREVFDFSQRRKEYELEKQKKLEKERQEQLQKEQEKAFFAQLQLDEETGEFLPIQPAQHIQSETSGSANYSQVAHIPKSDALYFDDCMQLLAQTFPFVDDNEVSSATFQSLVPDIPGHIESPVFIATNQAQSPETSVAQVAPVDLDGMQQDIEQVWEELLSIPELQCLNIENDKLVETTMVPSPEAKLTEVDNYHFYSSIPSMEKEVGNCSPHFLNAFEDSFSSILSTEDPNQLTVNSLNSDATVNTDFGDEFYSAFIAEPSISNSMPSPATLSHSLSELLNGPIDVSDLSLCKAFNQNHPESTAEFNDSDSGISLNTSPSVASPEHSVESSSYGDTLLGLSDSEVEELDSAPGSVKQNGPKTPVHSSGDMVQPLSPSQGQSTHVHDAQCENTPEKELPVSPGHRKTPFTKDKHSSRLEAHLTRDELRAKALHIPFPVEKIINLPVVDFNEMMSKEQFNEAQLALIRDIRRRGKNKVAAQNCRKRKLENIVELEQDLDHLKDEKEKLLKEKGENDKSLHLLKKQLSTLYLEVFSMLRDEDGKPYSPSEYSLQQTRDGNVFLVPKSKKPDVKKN
Chain of Keap1/Nrf2 (Q14145 whole entry): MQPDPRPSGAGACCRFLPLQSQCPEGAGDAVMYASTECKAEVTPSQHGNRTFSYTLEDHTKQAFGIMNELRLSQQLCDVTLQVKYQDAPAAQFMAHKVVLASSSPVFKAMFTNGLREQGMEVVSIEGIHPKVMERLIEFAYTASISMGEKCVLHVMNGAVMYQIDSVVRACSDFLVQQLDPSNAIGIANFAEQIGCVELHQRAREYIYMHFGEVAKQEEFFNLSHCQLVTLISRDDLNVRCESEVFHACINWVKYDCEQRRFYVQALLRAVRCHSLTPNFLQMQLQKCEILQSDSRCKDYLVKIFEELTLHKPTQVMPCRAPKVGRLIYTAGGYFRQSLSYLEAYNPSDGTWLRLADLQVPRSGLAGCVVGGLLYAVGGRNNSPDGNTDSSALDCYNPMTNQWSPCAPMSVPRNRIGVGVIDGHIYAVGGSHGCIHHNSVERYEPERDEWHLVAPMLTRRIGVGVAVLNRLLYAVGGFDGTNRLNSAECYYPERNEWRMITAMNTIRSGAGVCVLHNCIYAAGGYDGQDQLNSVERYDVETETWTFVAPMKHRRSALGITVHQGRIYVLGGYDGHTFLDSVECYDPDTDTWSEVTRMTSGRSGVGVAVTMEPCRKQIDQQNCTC

[7] = growth suppression of PTEN-null colon cells, dose response, cell-based, HCT116 PTEN knockout (AID 1047); type: functional;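 further: HCT116 colon tumor cells with PTEN knocked out; cells exposed to compound for 60 hours before readout; potency for loss of cell viability measured by luminescence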
[8] = tested on: HEK293; test: cells; conditions: Homo sapiens
[9] = tested on: HEK293; test: cells; conditions: Homo sapiens; remark: listed apart in the source
[10] = growth suppression of beta-catenin-knockout colon cells, dose response, cell-based, HCT116, human colon tumor (AID 1045); type: functional;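 further: HCT116 colon tumor cells with beta catenin knocked out; cells exposed to compound for 60 hours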
[11] = tested on: Streptococcus sp. 'group A'; test: growth inhibition of control SK(-) GAS strain, dose response, counter-screen for streptokinase expression inhibitor project, luminescence, kanamycin, BacTiterGlo, confirmation (AID 1900); type: functional, organism-based
[12] = microbe, parasite or virus in culture; type: functional; conditions: Mycobacterium tuberculosis
[13] = tested on: Streptococcus; test: Group A Streptococcus viability loss, dose response, counter-screen for streptokinase expression inhibitor project, luminescence, BacTiterGlo (AID 1915); type: functional, organism-based;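 further: potency for reduction of bacterial viability or growth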
[14] = C. albicans growth with fluconazole, confirmation, fluorescence, retest (AID 2467); type: functional, cell-based
[15] = biological target: T3, Serine/threonine-protein phosphatase (Candida dubliniensis (strain CD36 / CBS 7987 / NCPF 3949 / NRRLY-17841) (Yeast), UniProt B9W6M3); test: Fluorescence Cell-Based Secondary Assay to Identify Inhibitors of Calcineurin. [Related pubchem assays (depositor defined):AID1979, AID2007]; type: functional
T3 sequence (B9W6M3 whole entry): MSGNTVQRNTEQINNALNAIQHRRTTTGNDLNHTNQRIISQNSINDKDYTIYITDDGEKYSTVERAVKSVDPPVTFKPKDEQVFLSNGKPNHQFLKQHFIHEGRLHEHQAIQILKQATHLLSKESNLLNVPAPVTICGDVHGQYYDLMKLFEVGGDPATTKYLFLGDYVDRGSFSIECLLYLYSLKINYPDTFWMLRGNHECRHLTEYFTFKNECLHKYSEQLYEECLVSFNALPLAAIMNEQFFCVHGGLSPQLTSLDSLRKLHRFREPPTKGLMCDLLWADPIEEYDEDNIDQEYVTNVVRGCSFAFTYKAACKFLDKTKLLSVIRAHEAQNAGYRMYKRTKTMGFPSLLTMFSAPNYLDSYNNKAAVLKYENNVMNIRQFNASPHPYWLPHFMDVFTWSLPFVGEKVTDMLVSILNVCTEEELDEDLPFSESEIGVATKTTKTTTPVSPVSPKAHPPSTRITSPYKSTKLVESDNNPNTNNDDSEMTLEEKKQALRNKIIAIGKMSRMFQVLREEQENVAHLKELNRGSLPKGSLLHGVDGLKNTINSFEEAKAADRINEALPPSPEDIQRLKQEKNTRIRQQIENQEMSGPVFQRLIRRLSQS

[16] = biological target: ATP-dependent molecular chaperone HSP82 (Candida albicans (strain WO-1) (Yeast), UniProt C4YTQ8); test: loss of DOC-induced GRE-beta-galactosidase reporter signal, dose response, Hsp90 inhibitor project, S. cerevisiae, luminescence (AID 2400); type: functional, cell-based;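 further: beta-galactosidase luminescence from glucocorticoid response element reporter as proxy for Hsp90 function; inhibitor potency where signal loss means Hsp90 inhibition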
Chain of ATP-dependent molecular chaperone HSP82 (C4YTQ8 whole entry): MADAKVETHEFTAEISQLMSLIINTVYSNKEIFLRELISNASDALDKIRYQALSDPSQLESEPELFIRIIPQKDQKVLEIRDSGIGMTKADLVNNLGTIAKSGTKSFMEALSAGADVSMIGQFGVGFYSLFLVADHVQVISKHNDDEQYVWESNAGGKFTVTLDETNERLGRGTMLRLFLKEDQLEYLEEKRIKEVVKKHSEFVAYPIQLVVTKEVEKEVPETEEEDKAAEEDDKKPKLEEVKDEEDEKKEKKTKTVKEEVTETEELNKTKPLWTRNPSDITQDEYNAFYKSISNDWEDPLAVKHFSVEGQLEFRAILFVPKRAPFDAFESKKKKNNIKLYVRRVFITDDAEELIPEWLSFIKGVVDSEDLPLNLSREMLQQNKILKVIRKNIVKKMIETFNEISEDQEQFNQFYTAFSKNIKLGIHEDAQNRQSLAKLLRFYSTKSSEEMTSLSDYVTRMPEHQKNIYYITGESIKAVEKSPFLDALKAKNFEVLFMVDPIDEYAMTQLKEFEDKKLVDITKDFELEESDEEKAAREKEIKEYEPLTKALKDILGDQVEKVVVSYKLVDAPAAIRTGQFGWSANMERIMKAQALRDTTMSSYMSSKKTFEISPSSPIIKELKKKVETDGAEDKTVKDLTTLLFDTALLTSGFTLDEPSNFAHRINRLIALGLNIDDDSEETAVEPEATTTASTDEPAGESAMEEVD

[17] = inhibitors of intracellular T. cruzi replication, confirmation, NIH3T3 host cells, beta-gal luminescence (AID 2044); type: functional, cell-based;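 further: intracellular parasites grown in NIH/3T3 mouse fibroblasts as host cells; luminescent beta-galactosidase reporter signal from transgenic T. cruzi replicating inside host cells; inhibitors lower the luminescence signal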
[18] = tested on: INS1; test: beta cell apoptosis inhibitors, cytokine rescue, dose response, luminescence, retest (AID 449756); type: functional, cell-based; conditions: Rattus norvegicus;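 further: cell death triggered by IL-1 beta plus TNF-alpha plus IFN-gamma mixture; protective hits raise ATP signal compared with cytokine alone wells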
[19] = tested on: Vero; test: cells; type: functional; conditions: Chlorocebus sabaeus
[20] = biological target: T3, Serine/threonine-protein phosphatase; test: calcineurin pathway inhibitors in yeast reporter, dose response, S. cerevisiae, CDRE-lacZ, luminescence, secondary (AID 2388); type: functional, cell-based;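 further: yeast reporter cells carrying a calcineurin-responsive lacZ construct stimulated with calcium chloride; luminescent beta-galactosidase reporter signal in whole cells rather than isolated phosphatase activity; potency for inhibition where a drop in reporter signal means calcineurin blockade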
[21] = cytotoxicity toward NIH3T3 fibroblasts, dose response, counter-screen, cell-based, ATP luminescence, mouse fibroblasts (AID 2010); type: functional;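 further: cells exposed to compound for about 90 hours before reading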
[22] = NIH-3T3 fibroblast cytotoxicity, dose response, cytotoxicity control, cell-based, fluorescence, Alamar Blue, secondary assay (AID 2327); type: functional;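 further: NIH-3T3 mouse fibroblasts cultured with fluconazole at 8 µg/mL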
[23] = biological target: Heat shock protein HSP 90-alpha (Homo sapiens, UniProt P07900); type: functional, organism-based
[24] = tested on: HEK293; test: cytotoxicity in HEK293T NF-kB-Luc cells, SAR follow-up, cytotoxicity control for NF-kB activator project, cell-based, resazurin fluorescence (AID 493251); type: functional; conditions: Homo sapiens
[25] = tested on: Jurkat; test: SAR Analysis of small molecule inhibitors of […] specific antigen receptor-induced NF-kB activation in a Jurkat cell line using a luminescence assay - Set 3. [Related pubchem assays (depositor defined):AID435022, AID435025, AID465]; type: functional, cell-based; conditions: Homo sapiens
[26] = tested on: HEK293; test: SAR Analysis of small molecule inhibitors of B-cell specific antigen receptor-induced NF-kB activation in a HEK-293T cell line using a luminescence assay - Set 2. [Related pubchem assays (depositor defined):AID435022, AID435025, AID489021]; type: functional, cell-based; conditions: Homo sapiens
[27] = biological target: Paired box protein Pax-8 (Homo sapiens, UniProt Q06710); test: inhibitors of PAX8-driven TPO luciferase reporter, dose response, RMG-I cells, cherry-pick (AID 687027); type: functional, cell-based;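 further: luciferase reporter driven by Pax8 target thyroperoxidase promoter measured by SteadyGlo luminescence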
Chain of Paired box protein Pax-8 (Q06710 whole entry): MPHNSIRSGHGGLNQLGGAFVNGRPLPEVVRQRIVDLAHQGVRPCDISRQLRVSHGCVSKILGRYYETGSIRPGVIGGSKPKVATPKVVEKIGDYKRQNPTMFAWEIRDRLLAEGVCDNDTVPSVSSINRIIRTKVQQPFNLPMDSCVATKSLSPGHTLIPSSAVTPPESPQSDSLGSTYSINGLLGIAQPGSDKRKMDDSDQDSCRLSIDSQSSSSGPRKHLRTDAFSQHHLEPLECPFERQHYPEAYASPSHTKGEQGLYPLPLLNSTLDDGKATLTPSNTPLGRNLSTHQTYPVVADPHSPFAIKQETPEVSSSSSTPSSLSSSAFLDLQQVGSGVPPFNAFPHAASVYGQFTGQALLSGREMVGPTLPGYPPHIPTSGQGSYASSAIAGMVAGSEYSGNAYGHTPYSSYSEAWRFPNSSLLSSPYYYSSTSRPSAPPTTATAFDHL

[28] = cytotoxicity in HEK-293T NF-kB-Luc cells, dose response, cytotoxicity control for B/T-cell NF-kB inhibitor project, cell-based, uHTS hits (AID 489019); type: functional;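 further: IC50 reflects cytotoxicity as loss of cell viability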
[29] = biological target: G-protein coupled receptor 55 (Homo sapiens, UniProt Q9Y2T6); test: GPR55 antagonists blocking LPI-driven arrestin recruitment, primary screen, imaging, U2OS, beta-arrestin-GFP, LPI agonist (AID 2013); type: functional;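 further: antagonist potency measured as reduced agonist-driven arrestin aggregation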
Chain of G-protein coupled receptor 55 (Q9Y2T6 whole entry): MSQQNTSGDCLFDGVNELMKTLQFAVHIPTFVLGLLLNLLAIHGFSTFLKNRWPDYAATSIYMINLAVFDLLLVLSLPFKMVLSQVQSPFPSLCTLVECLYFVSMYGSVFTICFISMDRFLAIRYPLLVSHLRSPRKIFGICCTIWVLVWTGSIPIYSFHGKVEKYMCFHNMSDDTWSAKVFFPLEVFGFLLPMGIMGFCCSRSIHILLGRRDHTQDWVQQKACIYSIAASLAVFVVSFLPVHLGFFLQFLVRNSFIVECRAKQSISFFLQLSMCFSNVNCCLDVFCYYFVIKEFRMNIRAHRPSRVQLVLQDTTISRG

[30] = tested on: Jurkat; test: antigen receptor-induced NF-kB inhibitors, dose response, Jurkat, luciferase reporter, luminescence, B- and T-cell (AID 489004); type: functional, cell-based; conditions: Homo sapiens;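 further: NF-kB luciferase reporter Jurkat cells stimulated with PMA plus ionomycin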
[31] = biological target: E3 ubiquitin-protein ligase Mdm2 (Homo sapiens, UniProt Q00987); test: enhancers of MDM2-luciferase reporter signal, concentration-effect titration, project on inhibitors of MDM2 ubiquitin ligase, cellular assay, luminescent readout, 384-well plate format (AID 1394); type: functional;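 further: MDM2 E3 inhibitors raise luminescence so EC50 is for signal enhancement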
Chain of E3 ubiquitin-protein ligase Mdm2 (Q00987 whole entry): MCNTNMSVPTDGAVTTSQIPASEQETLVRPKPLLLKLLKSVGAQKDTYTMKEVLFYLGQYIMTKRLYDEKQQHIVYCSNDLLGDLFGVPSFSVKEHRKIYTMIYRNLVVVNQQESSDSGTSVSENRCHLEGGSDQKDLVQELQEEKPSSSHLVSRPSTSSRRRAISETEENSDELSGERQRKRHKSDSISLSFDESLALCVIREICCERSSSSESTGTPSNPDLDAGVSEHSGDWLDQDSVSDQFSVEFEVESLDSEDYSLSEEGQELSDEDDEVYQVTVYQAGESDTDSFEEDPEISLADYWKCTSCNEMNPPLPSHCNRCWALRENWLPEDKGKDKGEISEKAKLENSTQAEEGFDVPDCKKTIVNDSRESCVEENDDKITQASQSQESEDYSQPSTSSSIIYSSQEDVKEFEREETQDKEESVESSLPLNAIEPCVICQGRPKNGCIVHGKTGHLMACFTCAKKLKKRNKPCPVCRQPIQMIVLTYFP

[32] = biological target: T4, Type-1 angiotensin II receptor (Homo sapiens, UniProt P30556); test: AT1 receptor antagonists, dose response, selectivity assay for APJ receptor antagonist project, cell-based, uHTS hits (AID 463214); type: functional;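 further: antagonist potency against angiotensin II stimulated AT1 response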
T4 sequence (P30556 whole entry): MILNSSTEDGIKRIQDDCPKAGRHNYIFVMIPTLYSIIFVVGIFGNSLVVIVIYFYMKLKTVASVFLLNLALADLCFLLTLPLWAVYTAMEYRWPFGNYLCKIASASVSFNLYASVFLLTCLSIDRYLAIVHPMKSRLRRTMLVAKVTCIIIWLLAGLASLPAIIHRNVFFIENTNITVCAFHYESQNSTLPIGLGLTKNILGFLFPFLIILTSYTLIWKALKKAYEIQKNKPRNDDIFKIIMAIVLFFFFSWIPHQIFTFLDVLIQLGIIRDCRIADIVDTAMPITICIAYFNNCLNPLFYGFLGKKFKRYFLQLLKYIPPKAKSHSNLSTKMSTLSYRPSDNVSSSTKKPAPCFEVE

[33] = biological target: Beta-galactosidase (Escherichia coli, UniProt Q8VNN2); test: PubChem AID 485352; type: functional
Chain of Beta-galactosidase (Q8VNN2 whole entry): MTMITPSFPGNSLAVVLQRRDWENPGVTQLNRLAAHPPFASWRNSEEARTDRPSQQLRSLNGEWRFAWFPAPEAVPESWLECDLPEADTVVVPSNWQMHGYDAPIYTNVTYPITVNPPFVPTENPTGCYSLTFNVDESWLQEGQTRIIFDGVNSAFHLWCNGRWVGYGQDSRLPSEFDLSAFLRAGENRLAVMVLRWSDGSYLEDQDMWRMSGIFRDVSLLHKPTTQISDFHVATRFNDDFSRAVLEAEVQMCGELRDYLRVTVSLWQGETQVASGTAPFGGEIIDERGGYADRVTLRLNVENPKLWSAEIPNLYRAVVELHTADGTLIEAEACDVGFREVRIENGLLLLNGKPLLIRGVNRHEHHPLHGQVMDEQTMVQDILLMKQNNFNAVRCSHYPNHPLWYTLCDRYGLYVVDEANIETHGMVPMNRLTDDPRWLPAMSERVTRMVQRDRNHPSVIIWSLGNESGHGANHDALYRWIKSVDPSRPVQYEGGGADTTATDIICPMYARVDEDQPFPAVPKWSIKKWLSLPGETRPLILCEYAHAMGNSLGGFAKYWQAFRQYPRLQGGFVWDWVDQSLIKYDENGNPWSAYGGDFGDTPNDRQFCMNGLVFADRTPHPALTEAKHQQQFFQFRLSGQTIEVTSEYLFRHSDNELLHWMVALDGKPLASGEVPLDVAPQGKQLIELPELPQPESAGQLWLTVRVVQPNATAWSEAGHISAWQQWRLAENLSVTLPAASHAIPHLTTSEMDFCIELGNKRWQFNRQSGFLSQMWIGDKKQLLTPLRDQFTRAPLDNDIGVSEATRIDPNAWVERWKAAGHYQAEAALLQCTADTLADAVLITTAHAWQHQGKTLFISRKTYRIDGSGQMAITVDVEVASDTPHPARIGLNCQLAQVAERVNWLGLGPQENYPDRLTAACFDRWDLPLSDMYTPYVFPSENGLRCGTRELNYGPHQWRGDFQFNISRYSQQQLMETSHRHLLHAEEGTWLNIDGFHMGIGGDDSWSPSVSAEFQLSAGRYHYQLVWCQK

Chain of UDP-galactopyranose mutase (P9WIQ1 whole entry): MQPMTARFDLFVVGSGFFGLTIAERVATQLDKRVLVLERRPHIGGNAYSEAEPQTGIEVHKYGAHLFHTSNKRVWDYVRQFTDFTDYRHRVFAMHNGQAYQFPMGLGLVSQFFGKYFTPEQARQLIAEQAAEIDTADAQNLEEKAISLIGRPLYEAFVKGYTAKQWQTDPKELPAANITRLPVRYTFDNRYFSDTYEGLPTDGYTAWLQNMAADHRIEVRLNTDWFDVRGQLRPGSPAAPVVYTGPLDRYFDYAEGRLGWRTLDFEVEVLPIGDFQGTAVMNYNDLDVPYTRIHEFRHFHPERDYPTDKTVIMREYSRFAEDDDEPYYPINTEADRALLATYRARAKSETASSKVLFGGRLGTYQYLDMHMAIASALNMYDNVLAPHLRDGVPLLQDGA

Cn1nc(-c2ccccc2)c2nc3ccccc3nc21
AC50 [1]: 11.3 µM (active)
AC50 [2]: 44.5 µM (active)
EC50 [3]: > 99 µM (inactive)
EC50 [4]: > 99 µM (inactive)
AC50 [5]: 42.5 µM (active)
AC50 [6]: 14 µM (active)

CC1=CC(C)(C)Nc2ccc(OC(=O)CCN3C(=O)c4ccccc4C3=O)cc21
EC50 [7]: 10.8 µM (active)
EC50 [8]: > 59.6 µM (inactive)
EC50 [9]: > 59.6 µM (inactive)
EC50 [10]: 6.3 µM (active)

O=C(Oc1c(Cl)cc(Cl)c2cccnc12)c1cccs1
EC50 [11]: 1.47 µM (active)
CC50 [12]: 17.3 µM (active)
EC50 [13]: 1.27 µM (active)
EC50 [14]: 0.122 µM (active)
EC50 [15]: > 285 µM (inactive)
EC50 [16]: 16 µM (active)
EC50 [17]: 2.41 µM (active)
AC50 [18]: 8.83 µM (active)
CC50 [19]: 16.5 µM (active)
EC50 [20]: > 180 µM (inactive)
EC50 [21]: 9.43 µM (active)
EC50 [22]: 27.3 µM (active)
AC50 [23]: 3.28 µM (active)

CC(C)(C)c1ccc(-c2noc(CCC(=O)NC3CCCCC3)n2)cc1
IC50 [24]: > 80 µM (inactive)
IC50 [25]: 19.9 µM (active)
IC50 [26]: 2.68 µM (active)

C=C1C(=O)O[C@@H]2C[C@@H](C)[C@@H]3C=CC(=O)[C@@]3(C)[C@@H](OC(C)=O)[C@H]12 [ANGUSTIBALIN]
AC50 [27]: 0.742 µM (active)
IC50 [28]: > 80 µM (inactive)
AC50 [18]: 2.13 µM (active)
IC50 [29]: 4.49 µM (active)
IC50 [30]: 0.99 µM (active)
EC50 [31]: 7.68 µM (not active)
IC50 [32]: 22 µM (not active)
EC50 [33]: > 40 µM (inactive)
